# Data from ChEMBL document CHEMBL1149063, “Secondary metabolites by chemical screening, 26.1 7-O-beta-D-galactosyl-brefeldin A via transglycosylation with Penicillium brefeldianum” (J Nat Prod, 1994).
# What was measured:
# L1210 = assay: Antiproliferative activity against mouse L1210 cells by MTT reduction assay; type: functional, cell-based
# A549 = assay: Antiproliferative activity against human A549 cells by MTT reduction assay; type: functional, cell-based
# HT-29 = assay: Antiproliferative activity against human HT-29 cells by MTT reduction assay; type: functional, cell-based
# [1] = Toxicity in po dosed rat; type: organism-based; settings: in vivo
IC50 (L1210) [µg/mL],IC50 (A549) [µg/mL],IC50 (HT-29) [µg/mL],SMILES,LD50 [1] [mg/kg]
10,1.2,1.3,C[C@H]1CCC/C=C/[C@@H]2C[C@H](O[C@@H]3O[C@H](CO)[C@H](O)[C@H](O)[C@H]3O)C[C@H]2[C@H](O)/C=C/C(=O)O1 [7-O-BETA-D-GALACTOSYL-BREFELDIN A],–
–,–,–,C[C@H]1CCC/C=C/[C@@H]2C[C@H](O)C[C@H]2[C@H](O)/C=C/C(=O)O1 [BREFELDIN A],275
